Measured values taken from US20230278983A1, “INDOLE DERIVATIVES AND USES THEREOF FOR TREATING A CANCER” (Universite Claude Bernard Lyon 1, priority 2020, published 2023).
Read-outs that look alike come from different tables or passages of the source.

How the values were obtained:
[1] = molecular target: CK2 (Homo sapiens (Human), UniProt P68400); assay: Radiometric CK2 kinase assay; type: biochemical; settings: for inhibition at 0.1 µM: compound at 0.10 μM
[2] = tested on: 786-O and RPTEC cells; assay: Immunoblotting of CK2-dependent substrate phosphorylation and apoptosis markers; type: cell-based; settings: 48 hours or 24 hours, increasing concentrations
[3] = tested on: A549 and MDA-MB231 cells; assay: as above; type: cell-based, human; settings: A549 24 hours, MDA-MB231 48 hours
[4] = tested on: MDA-MB231 cells; assay: Cell death, IncuCyte propidium iodide live-cell imaging; type: cell-based, human; settings: 48 hours, increasing concentrations
[5] = tested on: RPTEC cells; assay: as above; type: cell-based; settings: 48 hours, 1 μM AB668 with 5 μM tariquidar (n=5)
[6] = tested on: MCF10-A cells (WT and CK2β-depleted); assay: as above; type: cell-based; settings: n=5
[7] = tested on: 786-O cells; assay: as above; type: cell-based, human

Chain of CK2 (P68400 whole entry): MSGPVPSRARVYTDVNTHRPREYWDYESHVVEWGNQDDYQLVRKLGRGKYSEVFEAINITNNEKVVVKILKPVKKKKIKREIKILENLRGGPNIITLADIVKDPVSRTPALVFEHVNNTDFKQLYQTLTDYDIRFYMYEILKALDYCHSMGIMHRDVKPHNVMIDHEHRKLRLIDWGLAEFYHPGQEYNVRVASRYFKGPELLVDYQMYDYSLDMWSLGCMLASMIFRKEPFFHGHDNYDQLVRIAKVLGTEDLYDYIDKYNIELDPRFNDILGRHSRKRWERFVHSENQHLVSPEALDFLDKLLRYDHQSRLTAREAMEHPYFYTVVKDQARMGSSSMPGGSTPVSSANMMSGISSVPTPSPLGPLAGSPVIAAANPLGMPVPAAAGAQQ

CCOC(=O)c1[nH]c2ccc(F)cc2c1-c1cn(CC2CCN(CCNS(=O)(=O)c3ccc(CC)cc3)CC2)nn1 [AB526, Ethyl 3-(1-((1-(2-((4-ethylphenyl)sulfonamido)ethyl)piperidin-4-yl)methyl)-1H-1,2,3-triazol-4-yl)-5-fluoro-1H-indole-2-carboxylate]
IC50 [1]: 300 nM
Mechanism of CK2 inhibition with respect to ATP ([1]; Lineweaver-Burk analysis (n=2)): non-ATP competitive mechanism of CK2 inhibition
Mechanism of inhibition towards CK2β ([1]; Lineweaver-Burk analysis (n=2)): mixed competitive inhibition towards CK2β
CK2-dependent substrate phosphorylation and apoptosis (western blot) [2]: inhibit CK2-dependent substrate phosphorylation in cells and induce apoptosis
CK2-dependent substrate phosphorylation and apoptosis (western blot) [3]: inhibit CK2-dependent substrate phosphorylation and induce apoptosis in different cancer cell lines
Sensitivity to compound-mediated cell death, MDA-MB231 versus normal MCF10A [4]: much more sensitive

CC(C)COC(=O)c1[nH]c2ccc(F)cc2c1-c1cn(CC2CCN(CCNS(=O)(=O)c3ccc(CC(C)C)cc3)CC2)nn1 [AB668, Isobutyl 5-fluoro-3-(1-((1-(2-((4-isobutylphenyl)sulfonamido)ethyl)piperidin-4-yl)methyl)-1H-1,2,3-triazol-4-yl)-1H-indole-2-carboxylate]
Effect of P-glycoprotein inhibitor tariquidar on compound effect [5]: has not changed the effect of AB668
Cell death in CK2β-depleted versus WT cells [6]: more pronounced in CK2β-depleted cells than in WT cells
CK2-dependent substrate phosphorylation and apoptosis (western blot) [2]: inhibit CK2-dependent substrate phosphorylation in cells and induce apoptosis
Cell death induction in RCC lines compared to normal cells ([7]; 24 hours, 786-O (VHL+/−) at 1 μM, RPTEC at 10 μM (n=5)): much more efficient in inducing cell death in RCC lines
Sensitivity to compound-mediated cell death, 786-O versus RPTEC or HEK 293 ([7]; 36 hours, increasing concentrations (n=4 to 6)): much more sensitive
Cell death induction compared to CX-4945 and sunitinib ([7]; at 5 and 2.5 μM): much more efficient in inducing cell death
CK2-dependent substrate phosphorylation and apoptosis (western blot) [3]: inhibit CK2-dependent substrate phosphorylation and induce apoptosis in different cancer cell lines
Sensitivity to compound-mediated cell death, MDA-MB231 versus normal MCF10A [4]: much more sensitive

CC(=O)c1[nH]c2ccc(F)cc2c1-c1cn(CC2CN(CCNS(=O)(=O)c3ccc(CC(C)C)cc3)C2)nn1 [AB1404, N-(2-(3-((4-(2-acetyl-5-fluoro-1H-indol-3-yl)-1H-1,2,3-triazol-1-yl)methyl)azetidin-1-yl)ethyl)-4-isobutylbenzenesulfonamide]
inhibition at 0.1 µM ([1]; ATP 10 μM): 20%

CC(C)Cc1ccc(S(=O)(=O)NCCN2CCC(Cn3cc(-c4c(CO)[nH]c5ccc(F)cc45)nn3)CC2)cc1 [AB1405, N-(2-(4-((4-(5-fluoro-2-(hydroxymethyl)-1H-indol-3-yl)-1H-1,2,3-triazol-1-yl)methyl)piperidin-1-yl)ethyl)-4-isobutylbenzenesulfonamide]
inhibition at 0.1 µM ([1]; ATP 10 μM): 11%

O=S(=O)(NCCN1CCC(Cn2cc(-c3c(CO)[nH]c4ccc(F)cc34)nn2)CC1)c1ccc(-c2c(O)cccc2F)cc1 [AB1406, 2′-fluoro-N-(2-(4-((4-(5-fluoro-2-(hydroxymethyl)-1H-indol-3-yl)-1H-1,2,3-triazol-1-yl)methyl)piperidin-1-yl)ethyl)-6′-hydroxy-[1,1′-biphenyl]-4-sulfonamide]
inhibition at 0.1 µM ([1]; ATP 10 μM): 29%

CCC(=O)c1[nH]c2ccc(F)cc2c1-c1cn(CC2CCN(CCNS(=O)(=O)c3ccc(-c4c(O)cccc4F)cc3)CC2)nn1 [AB1415, 2′-fluoro-N-(2-(4-((4-(5-fluoro-2-propionyl-1H-indol-3-yl)-1H-1,2,3-triazol-1-yl)methyl)piperidin-1-yl)ethyl)-6′-hydroxy-[1,1′-biphenyl]-4-sulfonamide]
IC50 [1]: 50 nM

CCC(=O)c1[nH]c2ccc(F)cc2c1-c1cn(CC2CCN(CCNS(=O)(=O)c3ccc(-c4c(OC)cccc4OC)cc3)CC2)nn1 [AB1416, N-(2-(4-((4-(5-fluoro-2-propionyl-1H-indol-3-yl)-1H-1,2,3-triazol-1-yl)methyl)piperidin-1-yl)ethyl)-2′,6′-dimethoxy-[1,1′-biphenyl]-4-sulfonamide]
IC50 [1]: 100 nM

CCC(=O)c1[nH]c2ccc(F)cc2c1-c1cn(CC2CCN(CCNS(=O)(=O)Cc3ccc(C(F)(F)F)cc3)CC2)nn1 [AB1417, N-(2-(4-((4-(5-fluoro-2-propionyl-1H-indol-3-yl)-1H-1,2,3-triazol-1-yl)methyl)piperidin-1-yl)ethyl)-1-(4-(trifluoromethyl)phenyl)methanesulfonamide]
IC50 ([1]; inhibition of CK2 activity, ATP 10 μM): 120 nM

CC(=O)c1[nH]c2ccc(F)cc2c1-c1cn(CC2CCN(CCNS(=O)(=O)c3ccc(-c4ccccc4O)cc3)CC2)nn1 [AB1450, N-(2-(4-((4-(2-acetyl-5-fluoro-1H-indol-3-yl)-1H-1,2,3-triazol-1-yl)methyl)piperidin-1-yl)ethyl)-2′-hydroxy-[1,1′-biphenyl]-4-sulfonamide]
IC50 [1]: 49 nM

CC(=O)c1[nH]c2ccc(F)cc2c1-c1cn(CC2CCN(CCNS(=O)(=O)c3ccc(-c4c(F)cccc4C(F)(F)F)cc3)CC2)nn1 [AB1451, N-(2-(4-((4-(2-acetyl-5-fluoro-1H-indol-3-yl)-1H-1,2,3-triazol-1-yl)methyl)piperidin-1-yl)ethyl)-2′-fluoro-6′-(trifluoromethyl)-[1,1′-biphenyl]-4-sulfonamide]
IC50 [1]: 45 nM

CC(=O)c1[nH]c2ccc(F)cc2c1-c1cn(CC2CCN(CCNS(=O)(=O)c3ccc(-c4c(C)cccc4C#N)cc3)CC2)nn1 [AB1452, N-(2-(4-((4-(2-acetyl-5-fluoro-1H-indol-3-yl)-1H-1,2,3-triazol-1-yl)methyl)piperidin-1-yl)ethyl)-2′-cyano-6′-methyl-[1,1′-biphenyl]-4-sulfonamide]
inhibition at 0.1 µM ([1]; ATP 10 μM): 36%

CC(=O)c1[nH]c2ccc(F)cc2c1-c1cn(CC2CCN(CCNS(=O)(=O)c3ccc(-c4ccc(F)cc4Cl)cc3)CC2)nn1 [AB1453, N-(2-(4-((4-(2-acetyl-5-fluoro-1H-indol-3-yl)-1H-1,2,3-triazol-1-yl)methyl)piperidin-1-yl)ethyl)-2′-chloro-4′-fluoro-[1,1′-biphenyl]-4-sulfonamide]
inhibition at 0.1 µM ([1]; ATP 10 μM): 40%

COc1cccc(OC)c1-c1ccc(S(=O)(=O)NCCN2CCC(Cn3cc(-c4c(C(C)=O)[nH]c5ccc(F)cc45)nn3)CC2)cc1F [AB1454, N-(2-(4-((4-(2-acetyl-5-fluoro-1H-indol-3-yl)-1H-1,2,3-triazol-1-yl)methyl)piperidin-1-yl)ethyl)-2-fluoro-2′,6′-dimethoxy-[1,1′-biphenyl]-4-sulfonamide]
IC50 [1]: 11 nM
